Measured values reported in patent US5625095A, “Process for producing high purity acetic acid” (Daicel Chemical Industries, Ltd., priority 1994, dated 1997).

How the values were obtained:
[1] = cited from earlier work
[2] = solubility of metaldehyde in methyl iodide, alcohols and their mixtures; format: physicochemical; conditions: for recrystallization temperature: bottom products composition
Experimental: That is, distillation in the presence of alcohols has made it possible to prevent clogging.
It has been confirmed that in the composition of bottom products from the distillation column in the continuous production process for acetic acid, the recrystallization temperature is 18° C. at a methyl iodide/methanol weight ratio of 3/1, 12° C. at 5/4, 6° C. at 3/4, and -9° C. or lower at 1/2. The preferred methyl iodide/methanol weight ratio, which depends on a thermal insulation state, is 5/4 to 1/2.

| Structure (SMILES) | miscibility with water [1] | dissolution in alcohols ([2]; alcohols such as methanol, ethanol, and propanol) | recrystallization temperature ([2]; methyl iodide/methanol weight ratio 1/2) [°C] | recrystallization temperature ([2]; methyl iodide/methanol weight ratio 3/1) [°C] | recrystallization temperature ([2]; methyl iodide/methanol weight ratio 3/4) [°C] | recrystallization temperature ([2]; methyl iodide/methanol weight ratio 5/4) [°C] | order of increasing solubilities ([2]; methyl iodide, acetaldehyde, methanol, mixed solution of methyl iodide and methanol) | solubility ([2]; particularly to methyl iodide) |
| --- | --- | --- | --- | --- | --- | --- | --- | --- |
| CC=O [acetaldehyde] | well miscible |  |  |  |  |  |  |  |
| CC1OC(C)OC(C)OC(C)O1 (stereo not drawn) [metaldehyde] |  | dissolved | ≤ -9 | 18 | 6 | 12 | methyl iodide<<acetaldehyde=methanol<mixed solution of methyl iodide and methanol | low solubility |
| CI [methyl iodide] | scarcely miscible |  |  |  |  |  |  |  |
